Test system: MOG35-55-induced experimental autoimmune encephalomyelitis (EAE) mouse model
Experiment: MOG35-55-induced EAE mouse model, clinical scoring and incidence
Type: in vivo, C57BL/6 mice

CN(c1ncnc2[nH]ccc12)[C@@H]1CCc2cc(C#N)nn2C1 [Compound I]
EAE clinical scoring, Mean (G6, 10 mg/kg BID oral, day 27): 0.30 | incidence of EAE (G6, 10 mg/kg BID oral, day 27): 30% | EAE clinical scoring, Mean (G7, 20 mg/kg BID oral, day 0): 0.00 | incidence of EAE (G7, 20 mg/kg BID oral, day 0): 0% | EAE clinical scoring, Mean (G7, 20 mg/kg BID oral, day 2): 0.00 | incidence of EAE (G7, 20 mg/kg BID oral, day 2): 0% | EAE clinical scoring, Mean (G7, 20 mg/kg BID oral, day 4): 0.00 | incidence of EAE (G7, 20 mg/kg BID oral, day 4): 0% | EAE clinical scoring, Mean (G7, 20 mg/kg BID oral, day 7): 0.00 | incidence of EAE (G7, 20 mg/kg BID oral, day 7): 0% | EAE clinical scoring, Mean (G7, 20 mg/kg BID oral, day 9): 0.00 | incidence of EAE (G7, 20 mg/kg BID oral, day 9): 0% | EAE clinical scoring, Mean (G7, 20 mg/kg BID oral, day 11): 0.00 | incidence of EAE (G7, 20 mg/kg BID oral, day 11): 0% | EAE clinical scoring, Mean (G7, 20 mg/kg BID oral, day 12): 0.00 | incidence of EAE (G7, 20 mg/kg BID oral, day 12): 0% | EAE clinical scoring, Mean (G7, 20 mg/kg BID oral, day 13): 0.30 | incidence of EAE (G7, 20 mg/kg BID oral, day 13): 30% | EAE clinical scoring, Mean (G7, 20 mg/kg BID oral, day 14): 0.60 | incidence of EAE (G7, 20 mg/kg BID oral, day 14): 50% | EAE clinical scoring, Mean (G7, 20 mg/kg BID oral, day 15): 0.80 | incidence of EAE (G7, 20 mg/kg BID oral, day 15): 60% | EAE clinical scoring, Mean (G7, 20 mg/kg BID oral, day 16): 0.90 | incidence of EAE (G7, 20 mg/kg BID oral, day 16): 60% | EAE clinical scoring, Mean (G7, 20 mg/kg BID oral, day 17): 1.00 | incidence of EAE (G7, 20 mg/kg BID oral, day 17): 70% | EAE clinical scoring, Mean (G7, 20 mg/kg BID oral, day 18): 1.10 | incidence of EAE (G7, 20 mg/kg BID oral, day 18): 80% | EAE clinical scoring, Mean (G7, 20 mg/kg BID oral, day 19): 1.10 | incidence of EAE (G7, 20 mg/kg BID oral, day 19): 80% | EAE clinical scoring, Mean (G7, 20 mg/kg BID oral, day 20): 0.90 | incidence of EAE (G7, 20 mg/kg BID oral, day 20): 70% | EAE clinical scoring, Mean (G7, 20 mg/kg BID oral, day 21): 0.80 | incidence of EAE (G7, 20 mg/kg BID oral, day 21): 60% | EAE clinical scoring, Mean (G7, 20 mg/kg BID oral, day 22): 0.50 | incidence of EAE (G7, 20 mg/kg BID oral, day 22): 30% | EAE clinical scoring, Mean (G7, 20 mg/kg BID oral, day 23): 0.50 | incidence of EAE (G7, 20 mg/kg BID oral, day 23): 30% | EAE clinical scoring, Mean (G7, 20 mg/kg BID oral, day 24): 0.30 | incidence of EAE (G7, 20 mg/kg BID oral, day 24): 10% | EAE clinical scoring, Mean (G7, 20 mg/kg BID oral, day 25): 0.30 | incidence of EAE (G7, 20 mg/kg BID oral, day 25): 10% | EAE clinical scoring, Mean (G7, 20 mg/kg BID oral, day 26): 0.30 | incidence of EAE (G7, 20 mg/kg BID oral, day 26): 10% | EAE clinical scoring, Mean (G7, 20 mg/kg BID oral, day 27): 0.30 | incidence of EAE (G7, 20 mg/kg BID oral, day 27): 10% | EAE clinical scoring, Mean (G8, 20 mg/kg QD oral, day 0): 0.00 | incidence of EAE (G8, 20 mg/kg QD oral, day 0): 0% | EAE clinical scoring, Mean (G8, 20 mg/kg QD oral, day 2): 0.00 | incidence of EAE (G8, 20 mg/kg QD oral, day 2): 0% | EAE clinical scoring, Mean (G8, 20 mg/kg QD oral, day 4): 0.00 | incidence of EAE (G8, 20 mg/kg QD oral, day 4): 0% | EAE clinical scoring, Mean (G8, 20 mg/kg QD oral, day 7): 0.00 | incidence of EAE (G8, 20 mg/kg QD oral, day 7): 0% | EAE clinical scoring, Mean (G8, 20 mg/kg QD oral, day 9): 0.00 | incidence of EAE (G8, 20 mg/kg QD oral, day 9): 0% | EAE clinical scoring, Mean (G8, 20 mg/kg QD oral, day 11): 0.00 | incidence of EAE (G8, 20 mg/kg QD oral, day 11): 0% | EAE clinical scoring, Mean (G8, 20 mg/kg QD oral, day 12): 0.00 | incidence of EAE (G8, 20 mg/kg QD oral, day 12): 0% | EAE clinical scoring, Mean (G8, 20 mg/kg QD oral, day 13): 0.20 | incidence of EAE (G8, 20 mg/kg QD oral, day 13): 20% | EAE clinical scoring, Mean (G8, 20 mg/kg QD oral, day 14): 0.60 | incidence of EAE (G8, 20 mg/kg QD oral, day 14): 50% | EAE clinical scoring, Mean (G8, 20 mg/kg QD oral, day 15): 1.10 | incidence of EAE (G8, 20 mg/kg QD oral, day 15): 70% | EAE clinical scoring, Mean (G8, 20 mg/kg QD oral, day 16): 1.30 | incidence of EAE (G8, 20 mg/kg QD oral, day 16): 70% | EAE clinical scoring, Mean (G8, 20 mg/kg QD oral, day 17): 1.40 | incidence of EAE (G8, 20 mg/kg QD oral, day 17): 80% | EAE clinical scoring, Mean (G8, 20 mg/kg QD oral, day 18): 1.30 | incidence of EAE (G8, 20 mg/kg QD oral, day 18): 70% | EAE clinical scoring, Mean (G8, 20 mg/kg QD oral, day 19): 1.10 | incidence of EAE (G8, 20 mg/kg QD oral, day 19): 70% | EAE clinical scoring, Mean (G8, 20 mg/kg QD oral, day 20): 0.80 | incidence of EAE (G8, 20 mg/kg QD oral, day 20): 50% | EAE clinical scoring, Mean (G8, 20 mg/kg QD oral, day 21): 0.70 | incidence of EAE (G8, 20 mg/kg QD oral, day 21): 50% | EAE clinical scoring, Mean (G8, 20 mg/kg QD oral, day 22): 0.40 | incidence of EAE (G8, 20 mg/kg QD oral, day 22): 40% | EAE clinical scoring, Mean (G8, 20 mg/kg QD oral, day 23): 0.40 | incidence of EAE (G8, 20 mg/kg QD oral, day 23): 40% | EAE clinical scoring, Mean (G8, 20 mg/kg QD oral, day 24): 0.30 | incidence of EAE (G8, 20 mg/kg QD oral, day 24): 30% | EAE clinical scoring, Mean (G8, 20 mg/kg QD oral, day 25): 0.30 | incidence of EAE (G8, 20 mg/kg QD oral, day 25): 30% | EAE clinical scoring, Mean (G8, 20 mg/kg QD oral, day 26): 0.30 | incidence of EAE (G8, 20 mg/kg QD oral, day 26): 30% | EAE clinical scoring, Mean (G8, 20 mg/kg QD oral, day 27): 0.30 | incidence of EAE (G8, 20 mg/kg QD oral, day 27): 30% | effective dose starting at (twice daily (BID), oral, EAE clinical symptoms): 3 mg/kg

Source: US20240238299A1, “USE OF PYRROLOPYRIMIDINE COMPOUND” (GUANGZHOU JOYO PHARMATECH CO., LTD, priority 2021, published 2024)
